# Reference: patent US20090028795A1, “NOD1 as an Anti-Tumor Agent” (priority 2005, published 2009)
# Starred links: 1 amine or outer side, 2 acyl side, 3 side chain; linkers in the order of their positions; H or OH if unused. Non-standard residues stand in square brackets, D forms with d. No end group written: not given here. mesoDAP = meso-diaminopimelic acid, O=C(O)[C@@H](CCC[C@H](N[*:1])C(=O)[*:2])N[*:3]
# What was measured:
# [1] = test system: MCF-7 C20 cells; assay: Propidium iodide exclusion cell death assay, Nod1-deficient MCF-7 C20 cells; assay type: cell-based, human; conditions: C20 cells, charcoal-treated serum, γTriDAP/CHX
# Description: (§1) Cell viability assays. Propidium iodide exclusion assay: Cells were stimulated as indicated for 2 days. Subsequently, cells were harvested, washed twice in FACS buffer (PBS containing 1% FCS and 0.1% NaN3) and resuspended in propidium iodide (PI)-containing FACS buffer (4 ug/ml). The extent of cell death was analyzed with a FACSCalibur flow cytometer (Becton Dickinson, Mountain View, Calif.). DAPI staining: MCF-7 cells were plated in chamber slides, and stimulated for 2 days. Cells were washed with PBS and apoptotic nuclei were stained with 1 μg/ml DAPI (Sigma Chemical Co., St. Louis, Mo.). Cells were fixed in 4% paraformaldehyde and examined by fluorescence microscopy.
# To further investigate the role of Nod1 in apoptosis, a variety of cell types were incubated with the Nod1 ligand, […] (γTriDAP), which specifically activates Nod1. The cell types tested included the parental MCF-7 cell line, the Nod1-deficient MCF-7C20 clone, and a cell line engineered to contain an additional human Nod1 allele (MCF-7Nod1) so that Nod1 was over-expressed. […] Cells were treated with γTriDAP in the presence or absence of cycloheximide (CHX) and cell death was then determined by propidium iodide staining and flow cytometry.
# [2] = test system: MCF-7 C20/Nod1 cells; assay: Propidium iodide exclusion apoptosis assay, estrogen/tamoxifen studies; assay type: cell-based, human
# Description: FIG. 12A-C illustrates that estrogen increases γTriDAP-induced apoptosis and tamoxifen inhibits γTriDAP-induced apoptosis in various MCF-7 tumor cell lines. FIG. 12A graphically illustrates the percent apoptosis in MCF-7 Blasto, MCF-7 C20 and MCF-7 C20/Nod1 cells cultured in increasing amounts or estrogen and either cycloheximide (CHX) or CHX plus γTriDAP (γTri). FIG. 12B graphically illustrates the percent apoptosis in MCF-7 Blasto, MCF-7 C20 and MCF-7 C20/Nod1 cells cultured in increasing amounts of tamoxifen and either cycloheximide (CHX) or CHX plus γTriDAP (γTri). For the estrogen studies, MCF-7 cells were cultured in charcoal-treated medium and stimulated with γTriDAP/CHX in the presence of increasing concentrations of estrogen (E2) and cell viability was measured by propidium iodide (PI) exclusion. For the tamoxifen studies, cells were treated with tamoxifen prior to addition of γTriDAP/CHX and cell viability measured by PI exclusion. […] Total protein extracts from MCF-7 Blasto, MCF-7 C20 and MCF-7 C20/Nod1 cells and from cells isolated from tumors were analyzed by immunoblotting using antibody against estrogen receptor (ERα), and ERK2 as loading control.
# as §1
# To determine whether the presence of estrogens modulates Nod1-induced apoptotic pathway, cells were cultured in medium containing charcoal-treated serum.
# [3] = test system: MCF-7 Blasto, MCF-7 C20, MCF-7 C20/Nod1 and MCF-7 RIP2ΔCARD cells; assay: Estrogen-induced proliferation (3H-thymidine) of MCF-7 cell lines; assay type: cell-based, human; conditions: for proliferative response to added estrogen: grown in the absence of estrogen
# Description: (§2) FIG. 11A-D illustrate that the presence of Nod1 prevents tumor growth in SCID mice. FIG. 11A graphically illustrates the tumor volume in mice injected with MCF-7 C20 (left) and MCF-7 C20/Nod1 (right) cells as a function of time. The cells (3×10^6 cells/mouse) were injected into the flanks of female SCID mice. Tumor size was measured once a week and volume was determined according to the formula (PW2×L)/2. Each line represents tumor growth observed in one mouse (n=4). As illustrated, the tumor volume diminished in mice that received Nod1 expressing tumor cells (C20/Nod1). […] FIG. 11B graphically illustrates that implanting estrogen pellets into mice prior to injection of MCF-7 Blasto, MCF-7 C20 and MCF-7 C20/Nod1 cells (3×10^6 cells/mouse) increases tumor growth except when the tumor cells express Nod1 (the C20/Nod1 cells). […] The tumor volume was determined as described above. FIG. 11C graphically illustrates the tumor volume over time in mice injected with MCF-7 Blasto, MCF-7 C20 and MCF-7 RIP2ΔCARD cells. […] FIG. 11D graphically illustrates tumor cell growth as a function of estrogen concentration. […] MCF-7 Blasto, MCF-7 C20, MCF-7 C20/Nod1 and MCF-7 RIP2ΔCARD cells were exposed to increasing concentrations of 17β-estradiol, pulsed with ^3H-thimidine and cell growth was determined by liquid scintillation. Data are representative of at least 3 independent experiments.
# Retroviral transfections. The various genes used in this study were cloned into pMSCV-Blasto, pBabe-Puro or pBabe-Neo retroviral vectors. MCF-7 cells were stably transfected using available procedures. Briefly, amphotropic 293 cells were transfected with retroviral vectors encoding selected Nod1, Nod2 and other proteins. Twenty-four hours post-transfection, cells were incubated at 32° C. overnight to produce viral particles. Target cells were infected the next day with virus-containing 293 cell supernatants containing recombinant retroviral particles. […] Cells were harvested on glass fiber filters and radioactivity measured by liquid scintillation. […]
# [4] = test system: MCF-7 Blasto, MCF-7 C20 and MCF-7 C20/Nod1 tumors; assay: Xenograft tumor growth in SCID mice with estrogen pellets; assay type: in vivo
# Description: as §2
# Human xenografts in nude mice. MCF-7 Blasto, MCF-7 C20 and MCF-7 C20/Nod1 cells were trypsinized, washed once with PBS and resuspended to a concentration of 1.5×10^7/ml. Two hundred microliters of each suspension were inoculated subcutaneously into the flank of athymic SCID/SCID or SCID/Nod (non-obese diabetic) female mice. Tumor size was assessed once a week. Tumor volume was calculated.
# In most studies, tumor formation by MCF-7 cells requires supplementation of estrogens for tumorigenesis in nude mice, even when cells are inoculated at high concentration. To further examine the role of estrogen in tumorigenesis, all three cell lines were injected into mice along with estrogen pellets (FIG. 11B). […]
# [5] = test system: MCF-7 Nod1 cells; assay: Propidium iodide exclusion cell death assay, MCF-7 cells over-expressing Nod1; assay type: cell-based, human; conditions: for effect on γTriDAP-induced cell death: caspase inhibitor 50 uM, 30 min before γTriDAP/CHX for 48 h; for effect on γTriDAP-induced apoptosis: inhibitor 100 uM, 30 min prior to γTriDAP/CHX for 48 h
# Description: as §1
# (§3) To further investigate the role of Nod1 in apoptosis, a variety of cell types were incubated with the Nod1 ligand, […] (γTriDAP), which specifically activates Nod1. The cell types tested included the parental MCF-7 cell line, the Nod1-deficient MCF-7C20 clone, and a cell line engineered to contain an additional human Nod1 allele (MCF-7Nod1) so that Nod1 was over-expressed. To determine whether the resistance of C20 cells to γTriDAP-induced apoptosis resulted from the absence of Nod1, human Nod1 was stably expressed in MCF-7 C20 cells to produce Nod1-sufficient C20 cells (C20/Nod1). As another control, the parental MCF-7 cell line was transfected with an empty retroviral vector to generate MCF-7 Blasto cells. Cells were treated with γTriDAP in the presence or absence of cycloheximide (CHX) and cell death was then determined by propidium iodide staining and flow cytometry.
# [6] = test system: MCF-7 and MCF-7 C20 cells; assay: Sensitivity to apoptotic stimuli, parental MCF-7 versus MCF-7 C20 cells; assay type: cell-based, human; conditions: C20 compared with parental cells
# Description: FIG. 1A-C illustrates Nod1 involvement in TNF-induced apoptosis. FIG. 1A provides a schematic diagram of the mutated gene that gave rise to a TNFα-resistant phenotype, and was later identified as a Nod1 mutant bearing a blasticidine (blast) gene insertion. The cell line bearing this Nod1 mutation is the MCF7-C20 cell line. The insertion from the pDisrup retroviral construct was mapped to the Nod1 gene. The junction of blasticidine fused with the Nod1 gene occurred at the 3′ end of the Nod1 gene between leucine-rich region 8 (LRR8) and leucine-rich region 9 (LRR9). […] Cell extracts from MCF-7 parental (called “wt”) and MCF-7 C20 cells were prepared and either immunoprecipitated with a monoclonal anti-NOD1 antibody (upper panel) or directly loaded onto an SDS-PAGE gel (lower panel), then transferred to PVDF membranes. Blots were analyzed by immunoblotting using the same monoclonal anti-NOD1 antibody. […] MCF-7 and MCF-7 C20 cells were treated with increasing concentrations of TNF (0-40 ng/ml) for 20 h. Cell viability was determined by propidium iodide (PI) exclusion assay and flow cytometry.
# as §1
# [7] = test system: MCF-7 cells; assay: Propidium iodide exclusion cell death assay, wild-type (parental/Blasto) MCF-7 cells; assay type: cell-based, human
# Description: as §1, §3
# [8] = test system: poly(ADP-ribose)polymerase (PARP) and capases 6, 7, 8 and 9; assay: Western blot of PARP and caspase cleavage in MCF-7 cells; assay type: cell-based, human; conditions: CHX 0.5 ug/ml, 24 h
# Description: Cleavage of PARP and various caspases was detected by Western blot analysis of cell MCF-7 Blasto, MCF-7 C20 and MCF-7 Nod1 after stimulation with γTriDAP, αTriDAP or medium (control) in the presence or absence of CHX (0.5 ug/ml) for 24 h. Cells were harvested, subjected to western blotting and PARP, caspases, p20, p41/43 and p35 were detected with antibodies reactive thereof.
# Western blot analysis and immunoprecipitation. Cells were washed extensively and lysed using lysis buffer containing 50 mM Hepes, 100 mM NaCl, 2 mM EDTA, 10% glycerol, 1% Nonidet P-40, 14 μM pepstatin A, 100 uM leupeptin, 3 mM benzamidine, 1 mM PMSF, 1 mM sodium pyrophosphate, 10 mM sodium orthovanadate, 100 U/ml aprotinin, and 100 mM sodium fluoride. After incubation for 30 min on ice, cell lysates were centrifuged (14000 rpm, 10 min, 4° C.) and the supernatants were recovered. For immunoprecipitation, cell lysates were mixed with 5 μg of antibody for 3 hour at 4° C. under constant agitation. Immune complexes were allowed to bind to 20 μl protein A-Sepharose beads overnight, beads were washed three times with lysis buffer. Immunoprecipitates were separated on SDS-PAGE and transferred to PVDF membranes.
# [9] = test system: MCF-7 cells; assay: Apoptosis in the presence of TNFα (FIG. 8C); assay type: cell-based, human; conditions: with TNFα
# Description: FIG. 8A-D illustrate that a synergistic relationship exists between NOD1 and TNFα. FIG. 8A graphically illustrates that the percentage of apoptotic cells increases in dose-specific manner as the concentration of NOD1 increases from 0.0 to 100 μg/ml and the concentration of TNFα increases from 0.5 ng/ml to 1 ng/ml. FIG. 8B graphically illustrates that the percentage of apoptotic cells increases in dose-specific manner as the concentration of cycloheximide increases from 0.0 to 3 μg/ml and the concentration of TNFα increases from 0.5 ng/ml to 1 ng/ml. […] FIG. 8D illustrates NOD1 expression at various time points after exposure of MCF-7 cells to TNFα.
# [10] = test system: SK-BR3; assay: Apoptosis (PI staining), SK-BR3 cells; assay type: cell-based, human; conditions: plus TNFα and cycloheximide (FIG. 9B)
# Description: as §1
# To determine if Nod1-dependent apoptosis occurs in other human cell lines, a series of epithelial cell lines were examined where Nod1 was stably expressed to enhance sensitivity to activation of the Nod1 pathway. Cells were treated with TNFα (T) and γTriDAP (γ) in the presence or absence of CHX (C) and monitored for viability by PI staining as a measure of apoptosis (Table 1).
compound,measurement,setting,value
17β-estradiol [estrogen],effect upon apoptosis,[1],little or no effect
same,effect on γTriDAP-induced apoptosis,"[2]; C20/Nod1 and Blasto cells, charcoal-treated serum, increasing estrogen",apoptosis increased in a dose-dependent manner
same,proliferative response to added estrogen,[3]; MCF-C20 and MCF-7 RIP2ΔCARD cells,strong proliferative response
same,proliferative response to added estrogen,[3]; parental and MCF-7 C20/Nod1 cells,neither the parental nor MCF-7 C20/Nod1 cell lines were stimulated to proliferate
same,tumor growth,"[4]; mice injected with MCF-7 Blasto cells, estrogen pellets",tumors grew
same,tumor growth,"[4]; mice injected with MCF-7 C20 cells, estrogen pellets",grew even larger
same,tumor growth,"[4]; mice that received MCF-7 C20/Nod1, estrogen pellets",did not grow tumors
COC(=O)CC(NC(=O)OC(C)(C)C)C(=O)CF [Boc-D-FMK],effect on γTriDAP-induced cell death,[5],abrogated
CC[C@@]1(O)C(=O)OCc2c1cc1n(c2=O)Cc2cc3ccccc3nc2-1 [camptothecin],sensitivity of MCF-7 C20 cells versus parental MCF-7 cells to induced cell death,[6],equally sensitive
C[C@@H]1C[C@@H]([C@H](O)CC2CC(=O)NC(=O)C2)C(=O)[C@@H](C)C1 [cycloheximide],cell death / apoptosis,"[7]; wild type cells, agent alone",No cell death
COc1cccc2c1C(=O)c1c(O)c3c(c(O)c1C2=O)C[C@@](O)(C(=O)CO)C[C@@H]3O[C@H]1C[C@H](N)[C@H](O)[C@H](C)O1 [doxirubicin],sensitivity of MCF-7 C20 cells versus parental MCF-7 cells to induced cell death,[6],equally sensitive
CC/C(=C(\c1ccccc1)c1ccc(OCCN(C)C)cc1)c1ccccc1 [tamoxifen],effect on γTriDAP-induced cell death,[2]; MCF-7 cell lines treated prior to γTriDAP/CHX (FIG. 12B),partially blocked
same,effect on estrogen-induced proliferation,[3]; MCF-7 C20 cells (data not shown),blocked
IETD,effect on γTriDAP-induced apoptosis,[5],marked inhibitory effects
TNFα,sensitivity of MCF-7 C20 cells versus parental MCF-7 cells to induced cell death,[6],significantly more resistant
z-VAD-FMK,effect on γTriDAP-induced cell death,[5],abrogated
same,effect on γTriDAP-induced apoptosis,[5],blocked γTriDAP-induced apoptosis nearly completely
αTriDAP: inactive control tri-peptide where mesoDAP was bound to Glu in the α position rather than in the γ position (Ala-Glu-[mesoDAP]; not fully specified),cell death,"[7]; MCF-7 cells, in the presence of cycloheximide",did not induce cell death
same,"proteolytic cleavage of PARP and capases 6, 7, 8 and 9",[8],not
same,apoptosis in the presence of TNFα,[9],may actually inhibit apoptosis
same,apoptosis of SKBR3 cells,[10],reduced apoptosis
